Measurements from article PMC10644342, “Improved Antibacterial Activity of 1,3,4-Oxadiazole-Based Compounds That Restrict Staphylococcus aureus Growth Independent of LtaS Function” (ACS Infectious Diseases, 2023).
In brackets after ≈: the same amount, converted by molar mass. Where two headings read alike, the source gives them in different places. Peptide text beside a SMILES is read from it. * marks the point of attachment. βNA = c1ccc2cc(N*)ccc2c1

Columns and labels:
E. coli strain K12 = assay: Growth inhibition in combination with PAβN; assay type: cell-based, Escherichia coli; settings: PAβN alone up to 100 μg/mL
Experimental: Phenylalanine-arginine β-naphthylamide (PAβN) is a well-studied efflux pump inhibitor, which can also permeabilize the outer membrane of Gram-negative organisms.[40] […] Without the addition of PAβN (0 μg/mL), neither 1771 nor 13 had any growth inhibitory activity at concentrations up to 64 μg/mL. With the addition of 25 μg/mL of PAβN, the E. coli strain K12 could still grow in the presence of 64 μg/mL of 1771 or 13; however, the growth rate was severely impacted in a dose-dependent manner. […] To further evaluate the Gram-negative coverage of 1771 and 13, we also tested 1771 or 13 in combination with PAβN against Pseudomonas aeruginosa strain PAO1, Klebsiella pneumoniae strain 699 (clinical isolate), and Acinetobacter baumannii strain DF1000 (clinical isolate) (Figure S6a–c).
Figure 8 Permeabilization of the outer membrane renders E. coli susceptible to 1771 and 13. Bacterial growth curves of (a) 1771 and (b) 13 (0–64 μg/mL) in combination with 0, 25, 50, and 100 μg/mL of PAβN. The bacterial growth (OD600nm) was plotted against time following 18 h of growth at 37 °C. The icons represent the mean of three biological replicates.

S. aureus = assay: MIC, broth microdilution (CLSI); assay type: cell-based, Staphylococcus aureus; settings: for MIC: Staphylococcus aureus, read-out: minimum inhibitory concentration; for fold increase in the MIC when compared to 1771: S. aureus and S. epidermidis strains
Experimental: (§1) S. aureus, S. epidermidis, E. faecalis, and E. faecium strains were routinely cultivated on tryptic soy agar (TSA) and grown for 18 h at 37 °C. S. aureus single colonies were subsequently transferred into 2 mL of tryptic soy broth (TSB) and grown for a further 18 h at 37 °C while being shaken at 180 rpm. S. pyogenes, S. agalactiae, and S. dysgalactiae strains were routinely cultured on TSA supplemented with 5% sheep blood and grown for 18 h at 37 °C with 5% CO2. E. coli was grown in LB broth at 37 °C. For LtaS-deficient strains, TSB was supplemented with 0.5 M NaCl to provide an osmotically balanced environment and instead grown at 30 °C. For strains harboring the pRMC2 tetracycline inducible vector,[61] the growth medium was supplemented with 10 μg/mL chloramphenicol and […] anhydrotetracycline hydrochloride (Sigma). Phenylalanine-arginine β-naphthylamide (PAβN) (Sigma) was dissolved in sterile water.
(§2) B. subtilis, staphylococcal, and enterococcal strains were grown in Mueller Hinton broth (MHB), while streptococcal strains were grown in MHB supplemented with 5% laked horse blood. All strains were grown for 18 h at 37 °C. The overnight cultures were subsequently subcultured 1:200 and grown to the exponential phase (OD600nm = 0.5–0.6) in fresh broth. 1771 and its derivatives 9–14 were reconstituted in DMSO and further diluted by performing a 1:2 serial dilution ranging between 256 and 0.125 μg/mL in a 96-well microtiter plate. One hundred microliters of 0.5 McFarland standardized inoculum (approximately equal to 5 × 10^5 cfu) were then dispensed into each well in the 96-well microtiter plate. The plate was incubated for 18 h at 37 °C.

S. epidermidis = assay: MIC, broth microdilution (CLSI); assay type: cell-based, Staphylococcus epidermidis; settings: Staphylococcus epidermidis, read-out: minimum inhibitory concentration
Experimental: as §1, §2

S. aureus strain SH1000 = assay: Biofilm prevention, crystal violet assay; assay type: cell-based, Staphylococcus aureus; settings: for biofilm prevention compared with 1771: SH1000; for concentration causing a 50% reduction in biofilm formation: SH1000, 24 h
Experimental: (§3) An indication of the biofilm prevention capabilities of 1771 and its derivatives 9–14 was achieved through the application of the crystal violet assay. S. aureus strain SH1000 and S. epidermidis strain RP62A were used, as they are strong biofilm formers. Overnight cultures were diluted 1:200 in fresh TSB containing 0.5% glucose (TSB-G), and 100 μL was added to individual wells in a 96-well microtiter plate. One hundred microliters of 1771 and 9–14 were diluted in TSB-G and added to bacteria at a final concentration ranging from 256 to 0.25 μg/mL with subsequent incubation for 24 h at 37 °C in a static incubator. Following incubation, biofilms were washed four times with ddH2O before being stained with 150 μL of 0.1% crystal violet for 30 min at room temperature. Following a further four washes in ddH2O, wells were resuspended in 200 μL of 7% acetic acid. The absorbance intensity of the crystal violet was measured at abs595nm in a Sunrise plate reader. Biomass formed was measured as a percentage of the no-compound control.

[1] = system: S. epidermidis strain RP62A; assay: Biofilm prevention, crystal violet assay; assay type: cell-based, Staphylococcus epidermidis; settings: for concentration causing a 50% reduction in biofilm formation: 24 h
Experimental: as §3

LTA = LTA quantification by Western blot; assay type: cell-based, Staphylococcus aureus; settings: strain LAC, 1× and 4× the MIC
Experimental: Overnight cultures of S. aureus strains were diluted 1:200 in fresh TSB and grown to an optical density of OD600nm 0.3. […] Vancomycin and daptomycin at 1× and 4× MIC were also included as control antibiotics. Cells were then normalized to have 10 mL of OD600nm 0.6, pelleted at 4000 rpm, and resuspended in 300 μL of PBS containing 200 μg/mL lysostaphin. This suspension was then incubated at 37 °C for 45 min to allow digestion of the cell wall to occur. One hundred microlitres of 4× SDS sample buffer were then added, and the mixture was boiled at 95 °C for 20 min. The insoluble material was then removed by pelleting at 16,000 rpm for 10 min. The supernatant containing LTA was then subjected to SDS-PAGE on a 4–20% Tris-glycine gel (Bio-Rad). The gel was transferred onto a PVDF membrane using a Trans-Blot Turbo Transfer System (Bio-Rad). The membrane was blocked overnight in TBST containing 5% semi-skimmed milk before being incubated with a mouse anti-LTA antibody (Hycult; HM2048; 1:2000 dilution) followed by a goat antimouse-HRP secondary antibody (Proteintech; SA00001; 1:2000 dilution) before being visualized using an Amersham-ECL kit (Cytiva).

HL-60 cell line = settings: antibiotics used in the training set, Table S2; cited from earlier work

| Compound | MIC (S. aureus; NEWMAN, strain Newman) [µg/mL] | MIC (S. aureus; strain EMRSA-15) [µg/mL] | MIC (S. aureus; strain LAC) [µg/mL] | MIC (S. aureus; strain MRSA252) [µg/mL] | MIC (S. aureus; strain MW2) [µg/mL] | MIC (S. aureus; strain Mu3) [µg/mL] | MIC (S. aureus; strain Mu50) [µg/mL] | MIC (S. aureus; strain SH1000) [µg/mL] | MIC (S. aureus; strain TW20) [µg/mL] | MIC (S. epidermidis; strain 305) [µg/mL] | MIC (S. epidermidis; strain 311) [µg/mL] | MIC (S. epidermidis; strain 319) [µg/mL] | MIC (S. epidermidis; strain 322) [µg/mL] | MIC (S. epidermidis; strain 771) [µg/mL] | MIC (S. epidermidis; strain 780) [µg/mL] | MIC (S. epidermidis; strain RP62A) [µg/mL] | LTA signal by Western blot (LTA) | fold increase in the MIC when compared to 1771 (S. aureus) | concentration causing a 50% reduction in biofilm formation (S. aureus strain SH1000) [µg/mL] | concentration causing a 50% reduction in biofilm formation [1] [µg/mL] | also measured |
| --- | --- | --- | --- | --- | --- | --- | --- | --- | --- | --- | --- | --- | --- | --- | --- | --- | --- | --- | --- | --- | --- |
| NC(N)=NCCC[C@H](NC(=O)[C@@H](N)Cc1ccccc1)C(=O)Nc1ccc2ccccc2c1 [PAβN, Phenylalanine-arginine β-naphthylamide] (H-Phe-Arg-βNA) | – | – | – | – | – | – | – | – | – | – | – | – | – | – | – | – | – | – | – | – | impact on growth (E. coli strain K12): very limited impact on growth |
| COc1ccc2c(ccc3occ(CC(=O)OCC(=O)Nc4nnc(-c5cccc(Cl)c5)o4)c32)c1 [Compound 11, 2-((5-(3-Chlorophenyl)-1,3,4-oxadiazol-2-yl)amino)-2-oxoethyl 2-(7-Methoxynaphtho[2,1-b]furan-1-yl)acetate] | 2 (≈ 4.07 µM) | 2 (≈ 4.07 µM) | 4 (≈ 8.13 µM) | 4 (≈ 8.13 µM) | 2 (≈ 4.07 µM) | 2 (≈ 4.07 µM) | 2 (≈ 4.07 µM) | 2 (≈ 4.07 µM) | 2 (≈ 4.07 µM) | 2 to 4 (≈ 4.07 to 8.13 µM) | 2 (≈ 4.07 µM) | 2 (≈ 4.07 µM) | 4 (≈ 8.13 µM) | 2 (≈ 4.07 µM) | 4 (≈ 8.13 µM) | 2 to 4 (≈ 4.07 to 8.13 µM) | – | – | – | – | biofilm prevention compared with 1771 (S. aureus strain SH1000): better than 1771; biofilm prevention compared with 1771 [1]: better than 1771 |
| Oc1cc(Cl)ccc1Oc1ccc(Cl)cc1Cl [triclosan] | – | – | – | – | – | – | – | – | – | – | – | – | – | – | – | – | substantial decrease in LTA production | – | – | – | – |
| Cc1c(N)cccc1Cn1ccc(OCCc2cccs2)cc1=O [nilofabicin] | – | – | – | – | – | – | – | – | – | – | – | – | – | – | – | – | substantial decrease in LTA production | – | – | – | – |
| COc1ccc2c(ccc3occ(CC(=O)OCC(=O)Nc4nnc(-c5ccccc5)o4)c32)c1 [Compound 9, 2-Oxo-2-((5-phenyl-1,3,4-oxadiazol-2-yl)amino)ethyl 2-(7-Methoxynaphtho[2,1-b]furan-1-yl)acetate] | 32 (≈ 70 µM) | 64 (≈ 140 µM) | 32 to 64 (≈ 70 to 140 µM) | 64 (≈ 140 µM) | 64 (≈ 140 µM) | 64 (≈ 140 µM) | 64 (≈ 140 µM) | 32 (≈ 70 µM) | 32 (≈ 70 µM) | 64 (≈ 140 µM) | 64 (≈ 140 µM) | 64 (≈ 140 µM) | 64 (≈ 140 µM) | 64 (≈ 140 µM) | 32 (≈ 70 µM) | 32 (≈ 70 µM) | – | 4- to 16 fold | 32 to 64 | 16 to 64 | – |
| O=C(COC(=O)Cc1coc2ccc3ccccc3c12)Nc1nnc(-c2cccc(Cl)c2)o1 [Compound 10, 2-((5-(3-Chlorophenyl)-1,3,4-oxadiazol-2-yl)amino)-2-oxoethyl 2-(Naphtho[2,1-b]furan-1-yl)acetate] | 64 (≈ 139 µM) | 32 to 64 (≈ 69.3 to 139 µM) | 64 (≈ 139 µM) | 64 (≈ 139 µM) | 64 (≈ 139 µM) | 64 (≈ 139 µM) | 64 (≈ 139 µM) | 64 (≈ 139 µM) | 64 (≈ 139 µM) | 32 to 64 (≈ 69.3 to 139 µM) | 32 to 64 (≈ 69.3 to 139 µM) | 64 (≈ 139 µM) | 64 (≈ 139 µM) | 32 to 64 (≈ 69.3 to 139 µM) | 32 to 64 (≈ 69.3 to 139 µM) | 64 (≈ 139 µM) | – | 4- to 16 fold | 32 to 64 | 16 to 64 | – |
| O=C(COC(=O)Cc1coc2ccc3ccccc3c12)Nc1nnc(-c2ccccc2)s1 [Compound 14, 2-Oxo-2-((5-phenyl-1,3,4-thiadiazol-2-yl)amino)ethyl 2-(Naphtho[2,1-b]furan-1-yl)acetate] | > 64 | > 64 | > 64 | > 64 | > 64 | > 64 | > 64 | > 64 | > 64 | > 64 | > 64 | > 64 | > 64 | > 64 | > 64 | > 64 | – | 4- to 16 fold | 32 to 64 | 16 to 64 | – |
| CN[C@H](CC(C)C)C(=O)N[C@H]1C(=O)N[C@@H](CC(N)=O)C(=O)N[C@H]2C(=O)N[C@H]3C(=O)N[C@H](C(=O)N[C@H](C(=O)O)c4cc(O)cc(O)c4-c4cc3ccc4O)[C@H](O)c3ccc(c(Cl)c3)Oc3cc2cc(c3O[C@@H]2O[C@H](CO)[C@@H](O)[C@H](O)[C@H]2O[C@H]2C[C@](C)(N)[C@H](O)[C@H](C)O2)Oc2ccc(cc2Cl)[C@H]1O [vancomycin] | – | – | – | – | – | – | – | – | – | – | – | – | – | – | – | – | No reduction in LTA | – | – | – | Cell health index (CHI) (HL-60 cell line): 0.16 |
| CCCCCCCCCC(=O)N[C@@H](Cc1c[nH]c2ccccc12)C(=O)N[C@H](CC(N)=O)C(=O)N[C@@H](CC(=O)O)C(=O)N[C@@H]1C(=O)NCC(=O)N[C@@H](CCCN)C(=O)N[C@@H](CC(=O)O)C(=O)N[C@H](C)C(=O)N[C@@H](CC(=O)O)C(=O)NCC(=O)N[C@H](CO)C(=O)N[C@@H]([C@H](C)CC(=O)O)C(=O)N[C@@H](CC(=O)c2ccccc2N)C(=O)O[C@@H]1C [daptomycin] | – | – | – | – | – | – | – | – | – | – | – | – | – | – | – | – | No reduction in LTA | – | – | – | – |
| O=C(COC(=O)Cc1coc2ccc3ccccc3c12)Nc1nnc(-c2ccc(F)cc2)o1 [Compound 12, 2-((5-(4-Fluorophenyl)-1,3,4-oxadiazol-2-yl)amino)-2-oxoethyl 2-(Naphtho[2,1-b]furan-1-yl)acetate] | 8 (≈ 18 µM) | 8 (≈ 18 µM) | 8 (≈ 18 µM) | 16 (≈ 35.9 µM) | 8 (≈ 18 µM) | 8 (≈ 18 µM) | 4 to 8 (≈ 8.98 to 18 µM) | 8 (≈ 18 µM) | 8 (≈ 18 µM) | 8 (≈ 18 µM) | 4 to 8 (≈ 8.98 to 18 µM) | 4 to 8 (≈ 8.98 to 18 µM) | 8 (≈ 18 µM) | 4 to 8 (≈ 8.98 to 18 µM) | 4 to 8 (≈ 8.98 to 18 µM) | 4 to 8 (≈ 8.98 to 18 µM) | – | – | – | – | biofilm prevention compared with 1771 (S. aureus strain SH1000): worse than 1771; biofilm prevention compared with 1771 [1]: better |
